# Measured values as given in patent US20240010726A1, “LFA-1 SIGNALLING MEDIATOR FOR USE IN CANCER THERAPY” (Universität Basel, priority 2020, published 2024).
# What was measured:
# human EM CD8 T cells = experiment: Metabolic flux analysis, glycolytic switch of EM CD8 T cells; type: cell-based
# Protocol: FIG. 2: Extracellular magnesium promotes memory-specific activation via LFA-1. Glycolytic switch of human EM CD8 T cells (a) and naïve CD8 T cells (b) subsets upon injection of anti-CD3 Ab only, or anti-CD3 and anti-CD28 Ab, was assessed by metabolic flux analysis in medium containing either 1.2 mM Mg^2+, 0 mM Mg^2+, or medium which was reconstituted from 0 mM to 1.2 mM Mg^2+ immediately prior to activation (0→1.2 mM Mg^2+). (a) Results for human effector memory (EM) and (b) for human naïve CD8 T cells. Glycolytic switch was quantified by subtracting […] measurements. (c) Flow cytometric analysis of surface activation markers on human EM CD8 T cells 24 hours after activation by plate-bound anti-CD3 Ab and soluble anti-CD28 Ab, in 1.2 mM and 0 mM Mg^2+ media, respectively. (d) Abundance of inflammatory cytokines in corresponding EM CD8 T cell culture supernatants, determined by CBA. (e) CD11a (LFA-1) surface expression on human naïve and EM CD8 T cells as well PHA T cell blasts. Flow cytometry-based assessment of total LFA-1 expression assessed by mAb TS2/4 (f), closed conformation of αL by mAb HI111 (g), extended conformation of LFA-1 by mAb Kim127 (h), open head-piece conformation of LFA-1 by mAb m24 (i), phosphorylation of focal adhesion kinase (FAK) […] as well TNF expression (k)±TCR-induced activation in different extracellular Mg^2+ concentrations. (l) Flow cytometry-based assessment of LFA-1 with open-head piece conformation on human EM and naïve CD8 T cells using the open head-piece reporter mAb m24. (m) Assessment of glycolytic switch of EM CD8 T cells. (n) Assessment of glycolytic switch of naïve CD8 T cells. […] FIG. 4: […] Pooled results from n=6 healthy donors from 3 independent experiments. (b) CD69 expression of PHA T cell blasts upon activation with indicated concentrations of plate-bound anti-CD3 mAb in ±Mg^2+ containing medium. […] Cytotoxicity was quantified after adding luciferin to medium and measuring luminescent signal intensity. […] Cytotoxicity was quantified after adding luciferin to medium and measuring luminescent signal intensity. […]
# PC3-PIP tumor cells = experiment: Anti-PSMA CAR T cell in vivo experiment with Mg2+-restricted diet; design: species or system NSG mice; details: Mg^2+-depleted diet vs control diet; anti-PSMA CAR T cells i.v.
# Protocol: FIG. 3: Magnesium regulates LFA-1 mediated T cell activation and cytotoxicity as well BiTE- and CAR T-cell functionality. (a) Glycolytic switch of murine WT and LFA-1^−/− CTLs upon injection of anti-CD3/28 Ab in medium containing 1.2 mM Mg^2+ and 0 mM Mg^2+, presented as quantification of summarized data with n=4 mice. (b) Calcium flux in WT and LFA-1^−/− Jurkat T cells stimulated with anti-CD3 Ab in 1.2 mM and 0 mM Mg^2+ medium, respectively. Cells were loaded with Fluo4, and signal intensity as recorded by plate reader, was normalized to unstimulated baseline values. […] Quantified results of n=3 mice with 3 technical replicates each. […] The effector to target cell ratio was 3:1. Results are quantified of n=3 mice with 3 technical replicates each. (e) Representative CD11a (LFA-1) surface expression on human naïve and EM CD8 T cells, PHA T cell blasts and REP T cells, assessed by flow cytometry. […] Data is presented as quantified results of n=5 healthy donors (f, g, h), n=3 healthy donors with 2 technical replicates each or n=1 healthy donor with 4 technical replicates (j). […] Data is presented as quantified results of n=1 healthy donor with 4 technical replicates. […] (p) Abundance of IFNγ in cell culture supernatants corresponding to the conditions depicted in (o) at 24 hours was determined by ELISA (n=8, 3 independent experiments). […] Tumor volume was monitored twice per week. […]
compound,measurement,setting,value
"[Mg+2] [Mg^2+, Magnesium]",Glycolytic switch of EM CD8^+ T cells upon supra-physiologic activation,"human EM CD8 T cells; anti-CD3/anti-CD28 Ab plus secondary cross-linking Ab, 0 mM, 1.2 mM, 0→1.2 mM Mg^2+",lost
same,Glycolytic switch (ECAR) of EM CD8 T cells,"human EM CD8 T cells; anti-CD3 or anti-CD3/anti-CD28 Ab, 0 mM vs 1.2 mM Mg^2+",blunted
same,Glycolytic switch (ECAR) of EM CD8 T cells after Mg^2+ add-back,human EM CD8 T cells; medium reconstituted 0→1.2 mM Mg^2+ immediately prior to activation,fully revertible
same,CAR T cell-mediated tumor rejection (tumor growth),PC3-PIP tumor cells,negatively impacted CAR T cell-mediated tumor-rejection
